In patent publication US5571534A, “Drug formulations for parenteral use” (Orion-yhtyma Oy, priority 1991, dated 1996):
≈ marks a conversion by molar mass, not a printed value. Like-named read-outs stand apart in the source and are kept apart here.

Key:
[1] = HPLC measurement of the solubility of the anti-estrogen in an aqueous solution of 2-hydroxypropyl cyclodextrin; format: physicochemical; settings: room temperature; for solubility: read-out: Toremifene solubility (mg of toremifene / ml of cyclodextrin-water soln.)
Method: A weighed amount of 2-hydroxypropyl cyclodextrin was dissolved into distilled water by shaking with a shaker. The so formed clear solution was equilibrated with a large excess of antiestrogen at the boiling point. […] The solution was kept overnight at room temperature and the excess of precipitated antiestrogen was removed by centrifugation.
The separations were carried out at room temperature on a 35 * 4.6 mm stainless steel column (packed with 3-μm spherical octadecylsilanebonded silica particles; HS-3 C-18, (Perkin-Elmer, USA)
The mobile phase consisted of a mixture of acetonitrile: 0.05 M aqueous phosphate buffer containing 0.004 M of dimethyloctyl amine with a pH of 7.4. The flow rate was 0.8 ml/min.

[2] = Toremifene concentration in emulsion (Emulsan 20%) after filtration, spectrophotometric at 278 nm; format: physicochemical; settings: for Concentration after filtration: toremifene citrate in Emulsan 20%
Method: Emulsions prepared by dissolving the drug in a commercial fat emulsion.
The commercial fat emulsion used was Emulsan®20% (manufacturer Leiras-Kabi Infusion Ltd., Finland). […] The toremifene concentrations were 10 mg/ml, 14 mg/ml and 20 mg/ml. After the homogenization the samples were filtered through the 0.2 μm, 0.45 μm and 1.2 μm filters.
The concentration of toremifene was determined from the filtrate with a spectrofotometric method using the wave length of 278 nm. The samples were dissolved in methanol and diluted in the concentration of 0.02 mg/ml.

multidrug resistance = settings: high vs low plasma concentrations; J Clinical Oncology 1989; cited from earlier work

| SMILES | Desmethyl toremifene solubility (ml of desmethyl toremifene / ml of cyclodextrin-water soln.) ([1]; 125 mg β-HPC/ml of aqueous soln.) [mg/mL] | solubility ([1]; aqueous 2-hydroxypropyl cyclodextrin solution, 500 mg β-HPC/ml of aqueous soln.) [mg/mL] | solubility ([1]; aqueous β-hpc solution, 25 mg/ml, 25 mg β-HPC/ml of aqueous soln.) [mg/mL] | solubility ([1]; aqueous β-hpc solution, 63 mg/ml, 63 mg β-HPC/ml of aqueous soln.) [mg/mL] | solubility ([1]; aqueous β-hpc solution, 125 mg/ml, 125 mg β-HPC/ml of aqueous soln.) [mg/mL] | solubility ([1]; aqueous β-hpc solution, 250 mg/ml, 250 mg β-HPC/ml of aqueous soln.) [mg/mL] | solubility ([1]; aqueous γ-hpc solution, 125 mg/ml, 125 mg Γ-HPC/ml of aqueous soln.) [mg/mL] | solubility ([1]; aqueous γ-hpc solution, 250 mg/ml, 250 mg Γ-HPC/ml of aqueous soln.) [mg/mL] | solubility ([1]; aqueous γ-hpc solution, 500 mg/ml, 500 mg Γ-HPC/ml of aqueous soln.) [mg/mL] | solubility ([1]; water, 0 mg β-HPC/ml of aqueous soln.) [mg/mL] | Concentration after filtration ([2]; 10 mg/ml before filtration, 0.2 μm filter) [µg/mL] | Concentration after filtration ([2]; 10 mg/ml before filtration, 0.45 μm filter) [µg/mL] | Concentration after filtration ([2]; 10 mg/ml before filtration, 1.2 μm filter) [µg/mL] | Concentration after filtration ([2]; 14 mg/ml before filtration, 0.45 μm filter) [µg/mL] | Concentration after filtration ([2]; 14 mg/ml before filtration, 1.2 μm filter) [µg/mL] | Concentration after filtration ([2]; 20 mg/ml before filtration, 0.45 μm filter) [µg/mL] | Concentration after filtration ([2]; 20 mg/ml before filtration, 1.2 μm filter) [µg/mL] | solubility of toremifene by encapsulating in an emulsion droplet ([2]; emulsion droplet) | reversing multidrug resistance (multidrug resistance) |
| --- | --- | --- | --- | --- | --- | --- | --- | --- | --- | --- | --- | --- | --- | --- | --- | --- | --- | --- | --- |
| CNCCOc1ccc(/C(=C(/CCCl)c2ccccc2)c2ccccc2)cc1 [desmethyl toremifene] | 21 |  |  |  |  |  |  |  |  |  |  |  |  |  |  |  |  |  |  |
| CN(C)CCOc1ccc(/C(=C(/CCCl)c2ccccc2)c2ccccc2)cc1 [toremifene] |  | 87.7 (≈ 216 mM) | 7.4 (≈ 18.2 mM) | 14.1 (≈ 34.7 mM) | 21.7 (≈ 53.5 mM) | 53 (≈ 131 mM) | 36.3 (≈ 89.4 mM) | 61.1 (≈ 151 mM) | 125 (≈ 309 mM) | 0.3 (≈ 0.739 mM) | 4400 | 4000 | 4400 | 4300 | 3700 | 3600 | 3600 | can be increased considerably | more effective in reversing multidrug resistance than low concentrations |
